Data taken from patent US7396946B2, “Compound for treatment of external secretion disorders” (Sucampo AG, priority 1999, dated 2008).

System: normal rabbits
Assay: Effect on whole tear secretion of normal rabbits, rate of increase (Test Example 5)
Type: in vivo, Male Japanese albino rabbits
Conditions: 30 μl/eye single, 2 hours after the instillation compared with before (0 hour), 4 eyes
Procedure: Male Japanese albino rabbits were used.
(2) Method of Administration
Ophthalmic solution comprising an active ingredient of the present invention was prepared and used as a test composition.
Each of the compositions was instilled to the eye singly at the amount of 30 μl/eye.
Amount of the Tear Secretion
Before (0 hour) and 2 hours after the instillation, the whole tear secretion was determined.
Under no anesthetization, one edge of the Schirmer's test strip (Showa Yakuhin Kako Co., Ltd.) was inserted into the conjunctival sac of the each test animal. One minute after, the strip was removed and the length of the moisted part was read from the scale provided on the strip to determine the amount of whole tear secretion.
The rate (%) of increased amount of whole tear secretion was calculated at the 2 hours after the instillation compared with the before (0 hour).

Question: For “2-decarboxy-2-(2-carboxyethyl)-13,14-dihydro difluoro-PGE1 [Compound 3]”, which “Rate of the increased whole tear secretion” value (10 μg/ml ophthalmic solution) is on record?
Answer: Its value is 52.0%.

Question: `CCCC(F)(F)C(=O)C=CCC1C(O)CC(=O)C1CCCCCCC(=O)OC` (centres unmarked) [Compound 1, 15-dehydroxy-13,14-dihydro-14,15-dehydro-16keto-17,17-difluoro-PGE1-methyl ester] was tested. Which “Rate of the increased whole tear secretion” value (30 μg/ml ophthalmic solution) did it give?
Answer: The value was 40.7%.

Question: With `CCCCCCC(F)(F)C(=O)CCC1C(O)CC(=O)C1CCCCCCC(=O)O` (centres unmarked) [Compound 2, 13,14-dihydro-15-keto-16,16-difluoro-20-ethyl-PGE1] as the compound, how does the “Rate of the increased whole tear secretion” value (10 μg/ml ophthalmic solution) read?
Answer: Its value is 52.5%.

Question: For `CCCCC(F)(F)C(=O)CCC1C(O)CC(O)C1C/C=C\CCCC(=O)OC` (centres unmarked) [Compound 4, 13,14-dihydro-15-keto-16,16-difluoro-PGF2a-Methyl ester], which “Rate of the increased whole tear secretion” value (3 ug/ml ophthalmic solution) is on record?
Answer: The value was 61.8%.

Question: For `CCCCC(F)(F)C(=O)CCC1CCC(=O)C1CCCCCCC(=O)O` (centres unmarked) [Compound 5, 11-dehydroxy-13,14-dihydro-15-keto-16,16-difluoro-PGE1], which “Rate of the increased whole tear secretion” value (3 ug/ml ophthalmic solution) is on record?
Answer: Its value is 43.5%.

Question: With `CCCCCC(=O)CC[C@H]1[C@H](O)CC(=O)[C@@H]1CCCCCCC(=O)O` [Compound 6, 13,14-dihydro-15-keto-PGE1] as the compound, how does the “Rate of the increased whole tear secretion” value (100 μg/ml ophthalmic solution) read?
Answer: Its value is 44.0%.

Question: `CCCCCCC(F)(F)C(=O)CCC1C(O)CC(=O)C1CCCCCCCCC(=O)OC(C)C` (centres unmarked) [Compound 7, 2-decarboxy-2-(2-carboxyethyl)-13,14-dihydro 15-keto-16,16-difluoro-20-ethyl-PGE1-isopropyl ester] was tested. Which “Rate of the increased whole tear secretion” value (2O00 μg/ml ophthalmic solution) did it give?
Answer: Its value is 56.9%.

Question: How did the “Rate of the increased whole tear secretion” value (1 μg/ml ophthalmic solution) turn out when `CCCCC(F)(F)C(=O)CCC1C(O)CC(=O)C1C/C=C\CCCC(=O)O` (centres unmarked) [Compound 8, 13,14-dihydro-15-keto-16,16-difluoro-PGE2] was run?
Answer: The value was 24.8%.
